Here are results for 21 compounds from US20220356186A1, “PERK INHIBITING PYRROLOPYRIMIDINE COMPOUNDS” (HiberCell, Inc., priority 2019, published 2022).

pIC50: −log10 of the molar value. Read-outs that look alike come from different tables or passages of the source.

For experiment [1], the target named is T1, EIF2AK3 (PERK) catalytic domain (amino acids 536-1116) (Homo sapiens, UniProt Q9NZJ5).
T1 construct: EIF2AK3 (PERK) catalytic domain (amino acids 536-1116)
T1 sequence (Q9NZJ5 536-1116): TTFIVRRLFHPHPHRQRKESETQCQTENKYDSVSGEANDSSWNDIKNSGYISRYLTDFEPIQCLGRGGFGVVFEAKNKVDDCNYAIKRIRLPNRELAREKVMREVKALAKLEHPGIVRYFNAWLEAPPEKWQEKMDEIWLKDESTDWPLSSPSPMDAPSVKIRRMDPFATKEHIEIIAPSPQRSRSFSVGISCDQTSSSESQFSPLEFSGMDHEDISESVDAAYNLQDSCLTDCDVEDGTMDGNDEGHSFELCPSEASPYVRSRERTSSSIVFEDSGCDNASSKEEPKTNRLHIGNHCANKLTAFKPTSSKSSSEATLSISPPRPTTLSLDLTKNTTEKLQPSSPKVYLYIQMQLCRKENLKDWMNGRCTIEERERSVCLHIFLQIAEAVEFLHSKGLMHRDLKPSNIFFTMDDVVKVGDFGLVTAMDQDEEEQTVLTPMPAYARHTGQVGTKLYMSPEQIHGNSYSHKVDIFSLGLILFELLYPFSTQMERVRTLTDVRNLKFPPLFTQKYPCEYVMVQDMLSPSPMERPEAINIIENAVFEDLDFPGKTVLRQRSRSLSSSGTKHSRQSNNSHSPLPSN
As to the kind of experiment: PERK in vitro activity assay (isolated), TR-FRET kinase assay. Type of experiment: biochemical. The following applies: isolated PERK enzyme, 1.5 μM ATP; read-out: Biochemical IC50. From the text: PERK In Vitro Activity Assay (Isolated):
In vitro Inhibition of PERK Enzyme Activity (isolated) Recombinant human EIF2AK2 (PKR) catalytic domain (amino acids 252-551), EIF2AK3 (PERK) catalytic domain (amino acids 536-1116), GFP-eIF2a substrate, and Terbium-labelled phospho-eIF2a antibody is obtained (Invitrogen, Carlsbad, Calif.).
Express and purify HIS-SUMO-GCN2 catalytic domain (amino acids 584-1019) from E. coli. Perform TR-FRET kinase assays in the absence or presence of inhibitors in a reaction buffer consisting of 50 mM HEPES, pH 7.5, 10 mM MgCb, 1.0 mM EGTA, and 0.01% Brij-35, and 100-200 nM GFP-eIF2a substrate. […] Add test compound, initiate the reaction by addition of enzyme, and incubate at room temperature for 45 minutes. Stop the reaction by addition of EDTA to a final concentration of 10 mM, add Terbium-labelled phospho-eIF2a antibody at a final concentration of 2 nM, and incubate for 90 minutes. Monitor the resulting fluorescence in an EnVison® Multilabel reader (PerkinElmer, Waltham, Mass.). Determine TR-FRET ratios and the resulting IC50 values using a 4-parameter nonlinear logistic equation as shown: Y=(A+((B−A)/(1+((C/x)[…])))) where, Y=% specific inhibition, A=Bottom of the curve, B=Top of the curve, C=absolute IC50 (concentration causing 50% inhibition), and D=hill slope.
(In general: In TR-FRET formats the signal depends on donor and acceptor labels being close together.)

For experiment [2], the system named is GFP-eIF2α in HEK293 cells. As to the kind of experiment: PERK cellular assay, TR-FRET in HEK293-EGFP-eIF2a cells after tunicamycin-induced ER stress. Format: cell-based. The settings on record: HEK293-EGFP-eIF2a cells, tunicamycin 2 hours, read-out: Cellular eIF2α IC50. The procedure: Stable cell lines were created in HEK293 cells using lentiviral particles harboring an expression vector for GFP-eIF2α. Cells were selected using puromycin and enriched using fluorescence activated cell sorting against GFP. HEK293-EGFP-eIF2a cells were plated at 5000 cells/well in 384-well assay plates and incubated overnight at 37° C., 5% CO2. Inhibitor compounds were added to the wells by Echo acoustic dispensing and incubated for 30 minutes at 37° C., 5% CO2 prior to induction of ER stress by addition of tunicamycin to […] for 2 hours. Cells were lysed and TR-FRET was measured in an EnVision plate reader (PerkinElmer). FRET ratio data was normalized to signal from lysates treated with DMSO vehicle control and plotted as percent inhibition against 10-point; 3-fold dilution series of inhibitors. IC50 values were calculated using 4-parameter logistical fitting in XLFit.

In general, pIC50 refers to −log10 of the IC50, conventionally taken in molar units. On to `Cc1nc(N)c2c(-c3ccc(NC(=O)C(O)c4cccc(F)c4)cc3)cn(C)c2n1` (stereo not drawn) [Example 24, N-(4-(4-amino-2,7-dimethyl-7H-pyrrolo[2,3-d]pyrimidin-5-yl)phenyl)-2-(3-fluorophenyl)-2-hydroxyacetamide], for which the pIC50 in experiment [1] was 7.30 to 7.59; in experiment [2] it was 5.70 to 6.00.
For `Cc1cc(NC(=O)C(O)c2cccc(F)c2)ccc1-c1cn(C)c2nc(C(C)C)nc(N)c12` (stereo not drawn) [Example 25, N-(4-(4-amino-2-isopropyl-7-methyl-7H-pyrrolo[2,3-d]pyrimidin-5-yl)-3-methylphenyl)-2-(3-fluorophenyl)-2-hydroxyacetamide], the pIC50 in experiment [1] was 6.60 to 7.00; in experiment [2] (Homo sapiens, HEK293, 2 h), < 5.30.
For `Cc1cc(NC(=O)[C@H](N)c2ccccc2)ccc1-c1cn(C)c2ncnc(N)c12` [Example 26, (R)-2-amino-N-(4-(4-amino-7-methyl-7H-pyrrolo[2,3-d]pyrimidin-5-yl)-3-methylphenyl)-2-phenylacetamide] the same measures were 7.30 to 7.59 and 6.00 to 6.30.
`Cc1cc(NC(=O)C(N)c2ccccc2)ccc1-c1cn(C)c2ncnc(N)c12` (stereo not drawn) [Example 27, 2-amino-N-(4-(4-amino-7-methyl-7H-pyrrolo[2,3-d]pyrimidin-5-yl)-3-methylphenyl)-2-phenylacetamide]: the pIC50 is 6.60 to 7.00 in experiment [1] and 6.30 to 6.60 in experiment [2] (Homo sapiens, HEK293, 2 h).
For `Cc1cc(NC(=O)C(F)(F)c2ccccc2)ccc1-c1cn(C)c2ncnc(N)c12` [Example 28, N-(4-(4-amino-7-methyl-7H-pyrrolo[2,3-d]pyrimidin-5-yl)-3-methylphenyl)-2,2-difluoro-2-phenylacetamide] the same measures were 6.30 to 6.60 and 6.00 to 6.30.
As to `Cn1cc(-c2ccc(NC(=O)C(O)c3cccc(F)c3)cc2)c2c(N)ncnc21` (stereo not drawn) [Example 29, N-(4-(4-amino-7-methyl-7H-pyrrolo[2,3-d]pyrimidin-5-yl)phenyl)-2-(3-fluorophenyl)-2-hydroxyacetamide], the pIC50 in experiment [1] and in experiment [2] was 7.60 to 9.00 throughout.
For `Cn1cc(-c2ccc(NC(=O)C(O)c3cccc(F)c3)cc2)c2c(N)ncnc21` (stereo not drawn) [Example 30, N-(4-(4-amino-7-methyl-7H-pyrrolo[2,3-d]pyrimidin-5-yl)phenyl)-2-(3-fluorophenyl)-2-hydroxyacetamide], the pIC50 was 7.60 to 9.00 in experiment [1] and 6.60 to 7.00 in experiment [2].
On to `Cc1cc(NC(=O)C(O)c2ccccc2F)ccc1-c1cn(C)c2ncnc(N)c12` (stereo not drawn) [Example 31, N-(4-(4-amino-7-methyl-7H-pyrrolo[2,3-d]pyrimidin-5-yl)-3-methylphenyl)-2-(2-fluorophenyl)-2-hydroxyacetamide], for which the pIC50 is 7.60 to 9.00 in experiment [1] and 7.30 to 7.59 in experiment [2] (Homo sapiens, HEK293, 2 h).
`Cc1nc(N)c2c(-c3ccc(NC(=O)C(O)c4ccccc4F)cc3C)cn(C)c2n1` (stereo not drawn) [Example 32, N-(4-(4-amino-2,7-dimethyl-7H-pyrrolo[2,3-d]pyrimidin-5-yl)-3-methylphenyl)-2-(2-fluorophenyl)-2-hydroxyacetamide]: the pIC50 in experiment [1] is 6.60 to 7.00; in experiment [2] (Homo sapiens, HEK293, 2 h) it was 6.30 to 6.60.
For `Cc1cc(NC(=O)C(O)c2ccccc2Cl)ccc1-c1cn(C)c2ncnc(N)c12` (stereo not drawn) [Example 33, N-(4-(4-amino-7-methyl-7H-pyrrolo[2,3-d]pyrimidin-5-yl)-3-methylphenyl)-2-(2-chlorophenyl)-2-hydroxyacetamide] the same measures were 7.60 to 9.00 and 7.00 to 7.29.
For `Cc1nc(N)c2c(-c3ccc(NC(=O)C(O)c4ccccc4Cl)cc3C)cn(C)c2n1` (stereo not drawn) [Example 34, N-(4-(4-amino-2,7-dimethyl-7H-pyrrolo[2,3-d]pyrimidin-5-yl)-3-methylphenyl)-2-(2-chlorophenyl)-2-hydroxyacetamide] the same measures were 6.60 to 7.00 and 6.00 to 6.30.
`Cc1cc(NC(=O)C(O)c2cccc(Cl)c2)ccc1-c1cn(C)c2ncnc(N)c12` (stereo not drawn) [Example 35, N-(4-(4-amino-7-methyl-7H-pyrrolo[2,3-d]pyrimidin-5-yl)-3-methylphenyl)-2-(3-chlorophenyl)-2-hydroxyacetamide]: the pIC50 in experiment [1] is 7.60 to 9.00; in experiment [2] (Homo sapiens, HEK293, 2 h), 7.60 to 9.00.
For `Cc1nc(N)c2c(-c3ccc(NC(=O)C(O)c4cccc(Cl)c4)cc3C)cn(C)c2n1` (stereo not drawn) [Example 36, N-(4-(4-amino-2,7-dimethyl-7H-pyrrolo[2,3-d]pyrimidin-5-yl)-3-methylphenyl)-2-(3-chlorophenyl)-2-hydroxyacetamide], the pIC50 was 7.60 to 9.00 in experiment [1] and 7.30 to 7.59 in experiment [2].
As to `Cc1nc(N)c2c(-c3ccc(NC(=O)C(O)c4cccc(Cl)c4)cc3C)cn(C)c2n1` (stereo not drawn) [Example 37, N-(4-(4-amino-2,7-dimethyl-7H-pyrrolo[2,3-d]pyrimidin-5-yl)-3-methylphenyl)-2-(3-chlorophenyl)-2-hydroxyacetamide], the pIC50 in experiment [1] and in experiment [2] was 7.60 to 9.00 each time.
For `Cc1nc(N)c2c(-c3ccc(NC(=O)C(O)c4cccc(Cl)c4)cc3C)cn(C)c2n1` (stereo not drawn) [Example 38, N-(4-(4-amino-2,7-dimethyl-7H-pyrrolo[2,3-d]pyrimidin-5-yl)-3-methylphenyl)-2-(3-chlorophenyl)-2-hydroxyacetamide], the figures for the pIC50 in experiment [1] and in experiment [2] were 7.00 to 7.29 and 6.00 to 6.30, respectively.
As for `Cc1cc(NC(=O)C(O)c2ccccc2C)ccc1-c1cn(C)c2ncnc(N)c12` (stereo not drawn) [Example 39, N-(4-(4-amino-7-methyl-7H-pyrrolo[2,3-d]pyrimidin-5-yl)-3-methylphenyl)-2-hydroxy-2-(o-tolyl)acetamide], the pIC50 in experiment [1] was 7.60 to 9.00; in experiment [2] (Homo sapiens, HEK293, 2 h) it was 7.30 to 7.59.
The like results for `Cc1nc(N)c2c(-c3ccc(NC(=O)C(O)c4ccccc4C)cc3C)cn(C)c2n1` (stereo not drawn) [Example 40, N-(4-(4-amino-2,7-dimethyl-7H-pyrrolo[2,3-d]pyrimidin-5-yl)-3-methylphenyl)-2-hydroxy-2-(o-tolyl)acetamide] were, in that order, 7.30 to 7.59 and 6.60 to 7.00.
The like results for `Cc1cccc(C(O)C(=O)Nc2ccc(-c3cn(C)c4ncnc(N)c34)c(C)c2)c1` (stereo not drawn) [Example 41, N-(4-(4-amino-7-methyl-7H-pyrrolo[2,3-d]pyrimidin-5-yl)-3-methylphenyl)-2-hydroxy-2-(m-tolyl)acetamide] were, in that order, 7.60 to 9.00 and 7.60 to 9.00.
For `Cc1cccc(C(O)C(=O)Nc2ccc(-c3cn(C)c4nc(C)nc(N)c34)c(C)c2)c1` (stereo not drawn) [Example 42, N-(4-(4-amino-2,7-dimethyl-7H-pyrrolo[2,3-d]pyrimidin-5-yl)-3-methylphenyl)-2-hydroxy-2-(m-tolyl)acetamide] the same measures were 7.60 to 9.00 and 7.00 to 7.29.
With `CCc1cccc(C(O)C(=O)Nc2ccc(-c3cn(C)c4nc(C)nc(N)c34)c(C)c2)c1` (stereo not drawn) [Example 43, N-(4-(4-amino-2,7-dimethyl-7H-pyrrolo[2,3-d]pyrimidin-5-yl)-3-methylphenyl)-2-(3-ethylphenyl)-2-hydroxyacetamide], the pIC50 in experiment [1] and in experiment [2] was 7.60 to 9.00 each time.
Take `CCc1cccc(C(O)C(=O)Nc2ccc(-c3cn(C)c4nc(C)nc(N)c34)c(C)c2)c1` (stereo not drawn) [Example 44, N-(4-(4-amino-2,7-dimethyl-7H-pyrrolo[2,3-d]pyrimidin-5-yl)-3-methylphenyl)-2-(3-ethylphenyl)-2-hydroxyacetamide]: the pIC50 was 6.60 to 7.00 in experiment [1] and 5.70 to 6.00 in experiment [2].
